Measurements published in patent US20030060499A1, “Novel therapeutic method” (priority 1998, published 2003).
Where a name gives a salt, the structure may show the parent alone.

Key:
[1] = test system: putamen dopaminergic function; test: 18 Fluoro-dopa PET scanning in five year, double-blind, multicentre study of ropinirole versus levodopa; format: in vivo, human; settings: for loss of putamen dopaminergic function (mean percent change): all patients (Hoehn & Yahr I-III), approximately two years between scans, average of both sides of the brain; for loss of putamen dopaminergic function (mean percent change) / decrease in putamen dopaminergic function (mean percent change): 18 Fluoro-dopa PET; for decrease in putamen dopaminergic function (mean percent change): subgroup of patients with Parkinson's disease for less than 2 years
Procedure: In an ongoing five year, double-blind, multicentre study, patients with early Pakinson's disease (Hoehn & Yahr I-III) were randomised to receive either ropinirole or levodopa. Of those enrolled, 37 patients were scanned using 18 Fluoro-dopa PET scanning within the first year and then approximately two years later to measure the gradual decline in basal ganglia dopaminergic function. […] The following endpoints were assessed:
1 Mean percent change in putamen dopaminergic function in all patients (Hoehn & Yahr I-III)
2 Mean percent change in putamen dopaminergic function in Parkinson's disease patients with symptoms present for under two years
3 Mean percent change in putamen dopaminergic function in Parkinson's disease patients with symptoms present for more than two years

Parkinson's patients = test: three year, international, multicentre, double-blind comparative clinical trial of ropinirole versus bromocriptine; format: in vivo, human; settings: for patients considered responders (at least a 30% reduction from baseline in total motor examination score on the UPDRS): at the study's completion; for mean improvement in UPDRS motor score: three years
Excerpt: In a three year, international, multicentre, double-blind comparative clinical trial, Parkinson's patients were randomised to receive either ropinirole (n=168) or bromocriptine (n=167). 33% of patients received selegiline concomitantly with either ropinirole or bromocriptine. Of those enrolled, 214 patients completed the study (approximately 39% of patients treated with ropinirole and 33% of patients treated with bromocriptine withdrew from the study). Efficacy was based on the following:
1 Mean Unified Parkinson's Disease Rating Scale (UPDRS) Activities of Daily Living (ADL) score (Part II) at completion
2 Improvement in UPDRS total motor examination score (Part III)
3 Percentage of patients who were considered responders, defined as those with at least a 30% reduction from baseline in total motor examination score on the UPDRS
4 Average combined ADL and motor score at endpoint
5 The percentage of patients who required supplemental levodopa therapy.

[2] = patients who completed the study

| Structure (SMILES) | loss of putamen dopaminergic function (mean percent change) [1] [%] | decrease in putamen dopaminergic function (mean percent change) [1] [%] | patients considered responders (at least a 30% reduction from baseline in total motor examination score on the UPDRS) (Parkinson's patients) [%] | mean improvement in UPDRS motor score (Parkinson's patients; [2]) [%] | incidence of dyskinesias (Parkinson's patients; three year trial) [%] | patients who required supplemental levodopa (Parkinson's patients; three year trial) [%] | average improvement in the combined ADL and motor scores versus bromocriptine (Parkinson's patients; at endpoint, p=0.018) | incidence of dyskinesias (Parkinson's patients; human, in vivo, 3 years) [%] | mean improvement in UPDRS ADL score versus bromocriptine (Parkinson's patients; patients who completed the study, p=0.009) | difference between treatment groups in change in putamen dopaminergic function ([1]; patients with Parkinson's disease for more than two years, ropinirole versus levodopa) |
| --- | --- | --- | --- | --- | --- | --- | --- | --- | --- | --- |
| N[C@@H](Cc1ccc(O)c(O)c1)C(=O)O [levodopa] | 18 | 28 |  |  |  |  |  |  |  |  |
| CC(C)C[C@H]1C(=O)N2CCC[C@H]2[C@]2(O)O[C@](NC(=O)[C@@H]3C=C4c5cccc6[nH]c(Br)c(c56)C[C@H]4N(C)C3)(C(C)C)C(=O)N12 [bromocriptine] |  |  | 42 | 22 | 7 | 42 |  |  |  |  |
| CCCN(CCC)CCc1cccc2c1CC(=O)N2 [ropinirole, 4-[2-(di-n-propylamino)ethyl]-1,3-dihydro-2H-indolin-2-one hydrochlorid] | 13 | 14 | 53 | 31 |  | 34 | statistically significantly greater | 8 | statistically significantly mean improvement | no statistically significant difference |
